The test concerns P. falciparum NF54-PfAcAS-cKD. Put plainly: cKD compound susceptibility assay (luminescence, 72 hr), PfAcAS cKD line. The class given is cell-based. Particulars: Plasmodium falciparum. The text has this:
We used CRISPR-Cas9 to modify the native PfAcAS locus and install the linear pSN054 donor vector ([Nasamu et al., 2020]) that incorporates a C-terminal V5 and 2xHA-tags, a 10x aptamer array, and the TetR-DOZI expression cassette containing the blasticidin S deaminase gene, the reporter gene Renilla luciferase (RLuc), and the fusion proteins TetR-DOZI ([Ganesan et al., 2016]). The right homology region (RHR) was PCR amplified and inserted into pSN054 using the I-SceI restriction site. Fragments corresponding to the left homology region (LHR) fused to the re-codonized 3′-end of the gene (bp 2710–2991) as well as the target-specifying guide RNA sequence were synthesized using the BioXP 3200 System (SGI-DNA) and cloned into pSN054 using restriction sites FseI/AsisI and AflII, respectively. Donor vector generation was carried out via Gibson assembly, and the final construct was confirmed by restriction digests and Sanger sequencing. Primers used in this study are listed in the key resources table.
Transfection into Cas9-and T7 RNA polymerase-expressing NF54 parasites was carried out by preloading erythrocytes with the AcAS_pSN054 plasmid as described previously ([Deitsch et al., 2001]). Briefly, 50–100 μg of purified plasmid DNA were mixed with human red blood cells in 0.2 cm cuvettes and subjected to 8 square wave electroporation pulses of 365 V for 1 ms each, separated by 0.1 s. The DNA preloaded red blood cells were inoculated with schizont-stage parasites (e.g. NF54attB, NF54:pCRISPR) to achieve starting parasitemias ≤1% in RPMI 1640 Complete media. Cultures were maintained in 500 nM anhydrotetracycline (aTc; Sigma-Aldrich 37,919) and 2.5 μg/mL Blasticidin S (RPI Corp B12150–0.1). Emergence of transfectants was monitored via Giemsa smears and RLuc measurements. Clonal parasites were obtained by limiting dilution ([Rosario, 1981]).
Synchronous ring-stage, aptamer-regulated PfAcAS and control parasite lines were resuspended in varying aTc concentrations (high = 50 nM, low = 1 nM, and no aTc) and distributed into the drug plate. DMSO carrier and chloroquine (200 nM) wells served as positive and negative controls.

Setting [1] is: NF54, read-out: PfAcAS cKD EC50 ± SD (nM) (1nM aTc).
[2] abbreviates: NF54, read-out: PfAcAS cKD EC50 ± SD (nM) (50nM aTc).

Like-named read-outs stand apart in the source and are kept apart here.

As to `CCN(CC)S(=O)(=O)c1ccc(Cl)c(C(=O)Nc2ccc3nc(C)sc3c2)c1` [MMV019721], the EC50 runs as follows: under setting [1], 7 ± 1.2 nM; under setting [2], 43 ± 8.5 nM.
Take `O=C(NNC(=O)c1csnn1)c1ccc(Cl)cc1` [MMV084978]: the EC50 reads like this: under setting [1], 45 ± 4.4 nM; under setting [2], 240 ± 64 nM.

For the origin of these results see publication PMC8878317, “Chemogenomics identifies acetyl-coenzyme A synthetase as a target for malaria treatment and prevention” (Cell Chemical Biology, 2022).
